The source of these data is patent US12552738B2, “Crystal forms of amino lipids” (ModernaTX, Inc., priority 2017, dated 2026).

Common to all, as to assay type: physicochemical
Data set [1] can be described thus: Dynamic vapor sorption (DVS) isotherm, hygroscopicity. The settings on record: for Hygroscopicity / form change after DVS: salts or cocrystals of Compound 1; for Hygroscopicity: DVS isotherm at 25° C.; for form change after DVS: XRPD before and after DVS test at 25° C.; for water uptake, adsorption isotherm / water uptake, desorption isotherm: 80% relative humidity, 25° C.; for Hygroscopicity/purity decrease: MC3 and MC3 trimesate, water uptake up to 80% RH at 25° C. The protocol: DVS was measured on via a SMS (Surface Measurement Systems) DVS Intrinsic. The relative humidity at 25° C. were calibrated against deliquescence point of LiCl, Mg(NO3)2 and KCl.

A short description of data set [2]: free base pKa.
The nature of data set [3]: HPLC purity before and after the DVS experiment. The settings on record: samples prepared with crude and purified free base. How it is done: Trimesate Type A samples were prepared according to the procedure described in the foregoing, using the crude free base (HPLC purity of 88.5 area %) or purified free base (HPLC purity of 97.6 area %) as starting material, and analyzed by HPLC.

Where [4] appears, read: listed as 4-hydroxybenzoate Polymorph A.
[5] abbreviates: listed as trimellitate Polymorph A.

“Also recorded” adds a separate entry of the source.

“heptadecan-9-yl 8-((2-hydroxyethyl)amino)octanoate 4-hydroxybenzoate [4-Hydroxybenzoate Polymorph A]”: the Hygroscopicity result in data set [1] is recorded as “Non-hygroscopic”; in data set [1] (setting [4]), “non-hygroscopic”; in data set [1] (listed as 4-hydroxybenzoate of Compound 1) it was “non-hygroscopic”; in data set [1] (listed as Polymorph A of 4-hydroxybenzoate of Compound 1), “low hygroscopicity”. Further, the figures for the “form change after DVS” value in data set [1] and in data set [1] (setting [4]) were “(no)” and “no form change”, respectively.

With “heptadecan-9-yl 8-((2-hydroxyethyl)amino)octanoate orotate [Orotate Polymorph B]”, the Hygroscopicity entry in data set [1] is “slightly hygroscopic; also recorded: Hygroscopic”.

Regarding `CCCCC/C=C\C/C=C\CCCCCCCCC(CCCCCCCC/C=C\C/C=C\CCCCC)OC(=O)CCCN(C)C` [MC3, (6Z,9Z,28Z,31Z)-heptatriaconta-6,9,28,31-tetraen-19-yl 4-(dimethylamino)butanoate, reference compound], in data set [1] (listed as crude free base), the “water uptake, adsorption isotherm” value stood at 0.24%; the “water uptake, desorption isotherm” value was determined as 0.27%; the Hygroscopicity/purity decrease entry is “slightly hygroscopic”. For the same compound, in data set [1] (listed as pure free base), the “water uptake, adsorption isotherm” value worked out at 0.14% and the “water uptake, desorption isotherm” value was determined as 0.17%. For the same compound, the pKa in data set [2] was over 8.

Turning to “heptadecan-9-yl 8-((2-hydroxyethyl)amino)octanoate trimellitate [Trimellitate Polymorph A]”, in data set [1], the Hygroscopicity result is “Slightly hygroscopic” and the “form change after DVS” value is reported as “(no)”. Also, in data set [1] (setting [5]), the Hygroscopicity entry is given as “slightly hygroscopic” and the “form change after DVS” value is recorded as “no form change”.

In the case of “(6Z,9Z,28Z,31Z)-heptatriaconta-6,9,28,31-tetraen-19-yl 4-(dimethylamino)butanoate trimesate [Trimesate Type A]”, the Hygroscopicity/purity decrease entry in data set [1] is on record as “Non-hygroscopic”; in data set [1] (listed as trimesate Type A), “non-hygroscopic (Hygroscopicity concluded using the water uptake up to 80% RH at 25° C.: < 0.2% for non-hygroscopic)”; in data set [1] (listed as trimesate of MC3), “non-hygroscopic (Hygroscopicity concluded using the water uptake up to 80% RH at 25° C.: < 0.2% for non-hygroscopic)”. For the same compound, in data set [3], the “HPLC purity change after the DVS experiment” value is recorded as “No significant HPLC purity change”.
